{"source": "ChEMBL document CHEMBL5649166", "about": "“RIP3 induces apoptosis independent of pronecrotic kinase activity” (Mol Cell, 2014)", "key": {"[1]": {"target": "T1, Receptor-interacting serine/threonine-protein kinase 3 (Homo sapiens, UniProt Q9Y572)", "T1 sequence (Q9Y572 whole entry, the tested form may be a part)": "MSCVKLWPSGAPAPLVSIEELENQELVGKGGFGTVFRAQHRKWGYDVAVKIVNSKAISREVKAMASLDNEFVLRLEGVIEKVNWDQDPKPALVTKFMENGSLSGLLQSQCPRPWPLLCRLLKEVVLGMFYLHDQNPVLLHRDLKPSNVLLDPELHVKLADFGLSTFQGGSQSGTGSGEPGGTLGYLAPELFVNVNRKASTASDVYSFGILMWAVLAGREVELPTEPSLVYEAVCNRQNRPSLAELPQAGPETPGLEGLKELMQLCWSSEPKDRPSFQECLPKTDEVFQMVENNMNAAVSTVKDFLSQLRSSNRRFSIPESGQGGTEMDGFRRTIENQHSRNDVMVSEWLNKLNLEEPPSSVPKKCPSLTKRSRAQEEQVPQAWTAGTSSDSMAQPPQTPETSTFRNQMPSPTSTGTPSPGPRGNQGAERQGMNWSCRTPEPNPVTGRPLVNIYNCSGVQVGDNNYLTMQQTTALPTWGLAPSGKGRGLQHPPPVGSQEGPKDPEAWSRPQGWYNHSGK", "test": "Inhibition of recombinant human RIP3 kinase domain (1 to 328 residues) expressed in baculovirus expression system by fluorescence polarization assay"}, "[2]": {"target": "T2, Ephrin type-B receptor 3 (Homo sapiens) (UniProt P54753)", "T2 sequence (whole entry)": "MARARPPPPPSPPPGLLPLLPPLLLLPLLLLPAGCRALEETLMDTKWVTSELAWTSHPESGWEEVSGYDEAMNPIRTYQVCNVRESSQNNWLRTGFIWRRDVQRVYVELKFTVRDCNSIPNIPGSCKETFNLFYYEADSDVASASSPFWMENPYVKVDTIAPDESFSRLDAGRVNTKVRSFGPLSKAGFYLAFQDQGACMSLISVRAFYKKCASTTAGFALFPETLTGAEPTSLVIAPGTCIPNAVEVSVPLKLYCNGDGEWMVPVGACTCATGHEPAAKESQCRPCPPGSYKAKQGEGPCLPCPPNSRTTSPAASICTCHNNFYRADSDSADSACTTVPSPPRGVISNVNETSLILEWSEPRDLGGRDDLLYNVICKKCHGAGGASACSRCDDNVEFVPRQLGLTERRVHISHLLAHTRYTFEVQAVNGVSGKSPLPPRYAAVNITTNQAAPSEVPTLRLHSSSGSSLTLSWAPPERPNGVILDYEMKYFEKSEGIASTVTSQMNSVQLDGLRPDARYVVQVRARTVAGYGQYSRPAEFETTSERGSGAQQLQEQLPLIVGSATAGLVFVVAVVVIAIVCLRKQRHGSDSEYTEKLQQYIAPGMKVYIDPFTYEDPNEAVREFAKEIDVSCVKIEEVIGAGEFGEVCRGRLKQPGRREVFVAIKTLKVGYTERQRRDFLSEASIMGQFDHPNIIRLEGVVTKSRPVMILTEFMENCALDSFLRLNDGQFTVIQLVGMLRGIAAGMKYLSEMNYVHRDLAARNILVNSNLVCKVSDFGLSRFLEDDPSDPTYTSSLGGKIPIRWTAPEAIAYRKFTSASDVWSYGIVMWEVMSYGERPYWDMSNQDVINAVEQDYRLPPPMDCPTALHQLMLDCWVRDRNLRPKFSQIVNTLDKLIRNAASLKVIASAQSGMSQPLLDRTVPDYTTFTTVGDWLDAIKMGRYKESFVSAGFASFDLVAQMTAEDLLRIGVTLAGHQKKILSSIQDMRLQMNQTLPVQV", "test": "Residual activity of human EPHB3 using poly[Glu:Tyr] (4:1) as substrate at 1 uM in presence of 32P-ATP by Hotspot assay relative to control"}, "L929 [3]": {"test_system": "L929", "test": "Cytotoxicity against mouse L929 cells assessed as induction of apoptosis at 10 uM incubated for 18 hrs in presence of zVAD by Cell Titer-Glo luminescent cell viability assay", "assay_type": "toxicity, cell-based", "conditions": "l929, 18 h"}, "MEF [4]": {"test_system": "MEF", "test": "Cytotoxicity against MEF cells assessed as induction of apoptosis at 3 to 10 uM incubated for 18 hrs by Cell Titer-Glo luminescent cell viability assay", "assay_type": "toxicity, cell-based", "conditions": "mouse, dose 3-10 µM"}, "3T3SA [5]": {"test_system": "3T3SA", "test": "Cytotoxicity against mouse 3T3SA cells assessed as induction of apoptosis at 3 to 10 uM incubated for 18 hrs by Cell Titer-Glo luminescent cell viability assay", "assay_type": "toxicity, cell-based", "conditions": "dose 3-10 µM"}, "L929 [6]": {"test_system": "L929", "test": "Cytotoxicity against mouse L929 cells assessed as induction of apoptosis at 3 to 10 uM incubated for 18 hrs by Cell Titer-Glo luminescent cell viability assay", "assay_type": "toxicity, cell-based", "conditions": "l929, 18 h, dose 3-10 µM"}, "[7]": {"target": "G protein-coupled receptor kinase 5 (Homo sapiens) (UniProt P34947)", "sequence (P34947 whole entry, looked up)": "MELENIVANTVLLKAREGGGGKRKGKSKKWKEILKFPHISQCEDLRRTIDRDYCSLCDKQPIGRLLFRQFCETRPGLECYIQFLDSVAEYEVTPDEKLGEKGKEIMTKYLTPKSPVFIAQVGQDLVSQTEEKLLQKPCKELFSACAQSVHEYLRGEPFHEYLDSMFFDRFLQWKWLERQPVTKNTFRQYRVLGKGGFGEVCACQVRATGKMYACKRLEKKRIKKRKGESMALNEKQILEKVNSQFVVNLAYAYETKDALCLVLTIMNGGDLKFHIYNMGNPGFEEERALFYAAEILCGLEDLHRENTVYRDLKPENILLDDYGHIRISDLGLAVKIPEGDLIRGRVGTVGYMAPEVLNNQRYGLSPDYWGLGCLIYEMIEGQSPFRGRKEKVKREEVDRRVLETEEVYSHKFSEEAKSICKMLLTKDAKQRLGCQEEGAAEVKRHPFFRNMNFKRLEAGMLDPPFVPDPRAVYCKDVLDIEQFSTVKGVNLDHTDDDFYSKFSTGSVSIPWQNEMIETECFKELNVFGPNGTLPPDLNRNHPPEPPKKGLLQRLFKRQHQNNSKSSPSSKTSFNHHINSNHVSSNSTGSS", "test": "Residual activity of human GRK5 using casein as substrate at 1 uM in presence of 32P-ATP by Hotspot assay relative to control"}, "3T3SA [8]": {"test_system": "3T3SA", "test": "Cytotoxicity against mouse 3T3SA cells assessed as induction of apoptosis at 10 uM incubated for 18 hrs in presence of zVAD by Cell Titer-Glo luminescent cell viability assay", "assay_type": "toxicity, cell-based"}, "MEF [9]": {"test_system": "MEF", "test": "Cytotoxicity against MEF cells assessed as induction of apoptosis at 10 uM incubated for 18 hrs in presence of zVAD by Cell Titer-Glo luminescent cell viability assay", "assay_type": "toxicity, cell-based", "conditions": "mouse"}, "SVEC4-10 [10]": {"test_system": "SVEC4-10", "test": "Cytotoxicity against mouse SVEC4-10 cells assessed as induction of apoptosis at 10 uM incubated for 18 hrs in presence of zVAD by Cell Titer-Glo luminescent cell viability assay", "assay_type": "toxicity, cell-based", "conditions": "svec4-10, 18 h"}, "SVEC4-10 [11]": {"test_system": "SVEC4-10", "test": "Cytotoxicity against mouse SVEC4-10 cells assessed as induction of apoptosis at 3 to 10 uM incubated for 18 hrs by Cell Titer-Glo luminescent cell viability assay", "assay_type": "toxicity, cell-based", "conditions": "svec4-10, 18 h, dose 3-10 µM"}, "[12]": {"target": "Protein kinase C beta type (Homo sapiens) (UniProt P05771)", "sequence (P05771 2-671 limits assumed)": "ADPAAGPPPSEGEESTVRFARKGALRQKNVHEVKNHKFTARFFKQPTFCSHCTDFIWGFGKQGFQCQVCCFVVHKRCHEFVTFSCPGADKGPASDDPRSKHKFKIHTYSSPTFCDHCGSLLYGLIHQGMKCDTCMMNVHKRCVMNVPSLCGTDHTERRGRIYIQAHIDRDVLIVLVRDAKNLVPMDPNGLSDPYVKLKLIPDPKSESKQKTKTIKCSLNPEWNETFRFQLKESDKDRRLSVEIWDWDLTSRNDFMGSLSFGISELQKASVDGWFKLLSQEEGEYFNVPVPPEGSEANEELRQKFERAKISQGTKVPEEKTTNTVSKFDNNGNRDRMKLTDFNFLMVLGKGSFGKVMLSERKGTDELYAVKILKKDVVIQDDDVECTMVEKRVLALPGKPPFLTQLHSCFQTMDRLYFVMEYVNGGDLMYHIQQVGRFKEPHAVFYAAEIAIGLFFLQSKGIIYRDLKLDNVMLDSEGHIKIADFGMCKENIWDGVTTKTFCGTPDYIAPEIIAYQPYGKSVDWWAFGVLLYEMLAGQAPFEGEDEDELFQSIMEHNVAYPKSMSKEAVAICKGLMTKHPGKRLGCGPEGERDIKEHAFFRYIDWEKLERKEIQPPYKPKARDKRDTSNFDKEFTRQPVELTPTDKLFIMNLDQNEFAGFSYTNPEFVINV", "test": "Inhibition of human PKCb2 using ERMRPRKRQGSVRRRV as substrate at 1 uM in presence of 32P-ATP by Hotspot assay relative to control; values are per cent of control"}, "[13]": {"target": "T1, Receptor-interacting serine/threonine-protein kinase 3", "test": "Inhibition of recombinant human RIP3 kinase activity by ADP-glo assay"}, "[14]": {"target": "Ephrin type-A receptor 6 (Homo sapiens) (UniProt Q9UF33)", "sequence (Q9UF33 whole entry)": "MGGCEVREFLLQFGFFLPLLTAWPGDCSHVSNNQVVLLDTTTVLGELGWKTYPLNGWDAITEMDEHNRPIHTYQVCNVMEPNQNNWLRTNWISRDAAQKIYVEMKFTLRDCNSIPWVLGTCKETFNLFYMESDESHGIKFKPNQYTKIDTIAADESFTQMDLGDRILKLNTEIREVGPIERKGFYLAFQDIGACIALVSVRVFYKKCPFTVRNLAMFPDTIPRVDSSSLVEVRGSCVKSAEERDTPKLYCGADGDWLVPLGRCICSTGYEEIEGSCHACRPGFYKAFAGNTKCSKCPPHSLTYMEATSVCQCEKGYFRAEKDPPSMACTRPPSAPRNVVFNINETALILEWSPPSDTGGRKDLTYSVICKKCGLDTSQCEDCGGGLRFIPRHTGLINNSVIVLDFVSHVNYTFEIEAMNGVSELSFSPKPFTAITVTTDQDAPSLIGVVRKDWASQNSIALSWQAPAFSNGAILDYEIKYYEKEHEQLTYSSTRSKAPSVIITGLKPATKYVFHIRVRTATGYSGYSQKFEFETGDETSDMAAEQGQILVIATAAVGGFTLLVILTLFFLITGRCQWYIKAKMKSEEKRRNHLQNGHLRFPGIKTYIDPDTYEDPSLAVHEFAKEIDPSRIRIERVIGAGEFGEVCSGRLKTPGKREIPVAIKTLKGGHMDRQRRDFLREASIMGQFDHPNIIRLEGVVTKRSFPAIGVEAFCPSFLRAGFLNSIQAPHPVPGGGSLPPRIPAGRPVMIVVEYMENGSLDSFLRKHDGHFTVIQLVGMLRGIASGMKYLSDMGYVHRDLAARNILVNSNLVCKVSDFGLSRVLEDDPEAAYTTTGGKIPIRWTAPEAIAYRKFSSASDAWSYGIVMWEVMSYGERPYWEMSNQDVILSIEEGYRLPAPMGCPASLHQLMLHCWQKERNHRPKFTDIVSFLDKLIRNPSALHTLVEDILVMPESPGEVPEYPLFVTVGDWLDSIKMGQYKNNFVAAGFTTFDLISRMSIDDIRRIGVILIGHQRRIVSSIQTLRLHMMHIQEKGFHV", "test": "Inhibition of human EPHA6 using poly[Glu:Tyr] (4:1) as substrate at 1 uM in presence of 32P-ATP by Hotspot assay relative to control; values are per cent of control"}, "3T3SA [15]": {"test_system": "3T3SA", "test": "Induction of apoptosis in mouse 3T3SA cells assessed as membrane blebbing incubated for 2.5 hrs", "assay_type": "toxicity, cell-based"}, "MEF [16]": {"test_system": "MEF", "test": "Induction of apoptosis in RIP3-/- MEF cells transfected with RIP3 K51A mutant incubated for 18 hrs by Cell Titer-Glo luminescent cell viability assay", "assay_type": "toxicity, cell-based", "conditions": "mouse"}, "L929 [17]": {"test_system": "L929", "test": "Inhibition of TLR-3 induced necroptosis in mouse L929 cells assessed as increase in cell viability at 1 uM incubated for 18 hrs in presence of poly(I:C) by Cell Titer-Glo luminescent cell viability assay", "assay_type": "functional, cell-based"}, "BMDM": {"test_system": "BMDM", "test": "Induction of apoptosis in mouse BMDM cells expressing RIP3 K51A/K51A mutant incubated for 18 hrs by Cell Titer-Glo luminescent cell viability assay", "assay_type": "toxicity, cell-based"}, "3T3SA [18]": {"test_system": "3T3SA", "test": "Induction of apoptosis in RIP3 shRNA transfected mouse 3T3SA cells co-transfected with shRNA resistant RIP3 D143N mutant assessed as accumulation of FLAG-tagged RIP3 D143N mutant in pellet incubated for 3 hrs in presence of zVAD by immunoblot analysis", "assay_type": "toxicity, cell-based"}, "3T3SA [19]": {"test_system": "3T3SA", "test": "Induction of apoptosis in mouse 3T3SA cells assessed as cell death by measuring percent of PI positive cells incubated for 8 hrs by PI staining based flow cytometric analysis (reference value: 11.4%)", "assay_type": "toxicity"}, "SVEC4-10 [20]": {"test_system": "SVEC4-10", "test": "Induction of apoptosis in mouse SVEC4-10 cells transfected with MCMV M45-encoded vIRA incubated for 18 hrs by Cell Titer-Glo luminescent cell viability assay", "assay_type": "toxicity, cell-based", "conditions": "svec4-10, 18 h"}, "MEF [21]": {"test_system": "MEF", "test": "Induction of apoptosis in RIP3-/- MEF cells expressing dox-induced wildtype RIP3 assessed as RIP1-FADD association incubated for 1 hrs by immunoblot analysis", "assay_type": "toxicity, cell-based", "conditions": "mouse"}}, "note": "Activity calls are given as the source filed them. The rule behind the calls is not given here.", "data": [{"compound": "Cc1cc(-c2cnc(N)c3c(-c4ccc5scnc5c4)csc23)n(C)n1", "values": [{"measurement": "IC50", "setting": "[1]", "result": 8.6, "unit": "nM"}, {"measurement": "residual activity", "setting": "[2]", "result": 91.4, "unit": "%"}, {"measurement": "Activity", "setting": "L929 [3]", "result": "Non-Toxic"}, {"measurement": "Activity", "setting": "MEF [4]", "result": "Toxic"}, {"measurement": "Activity", "setting": "3T3SA [5]", "result": "Toxic"}, {"measurement": "Activity", "setting": "L929 [6]", "result": "Toxic"}, {"measurement": "residual activity", "setting": "[7]", "result": 96.5, "unit": "%"}, {"measurement": "Activity", "setting": "3T3SA [8]", "result": "Non-Toxic"}, {"measurement": "Activity", "setting": "MEF [9]", "result": "Non-Toxic"}, {"measurement": "Activity", "setting": "SVEC4-10 [10]", "result": "Non-Toxic"}, {"measurement": "Activity", "setting": "SVEC4-10 [11]", "result": "Toxic"}, {"measurement": "residual activity", "setting": "[12]", "result": 76.8, "unit": "%"}, {"measurement": "IC50", "setting": "[13]", "result": 6.5, "unit": "nM"}]}, {"compound": "CNC(=O)c1ccc2c(c1)ncn2-c1ccc(CC(=O)OC(C)(C)C)cc1", "values": [{"measurement": "IC50", "setting": "[1]", "result": 0.9, "unit": "nM"}, {"measurement": "residual activity", "setting": "[2]", "result": 93.6, "unit": "%"}, {"measurement": "residual activity", "setting": "[7]", "result": 94.7, "unit": "%"}, {"measurement": "residual activity", "setting": "[14]", "result": 88.9, "unit": "%"}, {"measurement": "residual activity", "setting": "[12]", "result": 94.7, "unit": "%"}, {"measurement": "IC50", "setting": "[13]", "result": 0.3, "unit": "nM"}]}, {"compound": "CC(C)S(=O)(=O)c1ccc2nccc(Nc3ccc4scnc4c3)c2c1", "values": [{"measurement": "Activity", "setting": "3T3SA [15]", "result": "Toxic"}, {"measurement": "residual activity", "setting": "[2]", "result": 61.2, "unit": "%"}, {"measurement": "Activity", "setting": "MEF [16]", "result": "Toxic"}, {"measurement": "Activity", "setting": "L929 [3]", "result": "Non-Toxic"}, {"measurement": "Activity", "setting": "MEF [4]", "result": "Toxic"}, {"measurement": "Activity", "setting": "3T3SA [5]", "result": "Toxic"}, {"measurement": "Activity", "setting": "L929 [6]", "result": "Toxic"}, {"measurement": "residual activity", "setting": "[7]", "result": 97.4, "unit": "%"}, {"measurement": "Activity", "setting": "3T3SA [8]", "result": "Non-Toxic"}, {"measurement": "inhibition", "setting": "L929 [17]", "result": "Active"}, {"measurement": "Activity", "setting": "MEF [9]", "result": "Non-Toxic"}, {"measurement": "Activity", "setting": "BMDM", "result": "Toxic"}, {"measurement": "Activity", "setting": "SVEC4-10 [10]", "result": "Non-Toxic"}, {"measurement": "Activity", "setting": "SVEC4-10 [11]", "result": "Toxic"}, {"measurement": "Activity", "setting": "3T3SA [18]", "result": "Toxic"}, {"measurement": "Activity", "setting": "3T3SA [19]", "result": 62, "unit": "%"}, {"measurement": "Activity", "setting": "SVEC4-10 [20]", "result": "Non-Toxic"}, {"measurement": "Activity", "setting": "MEF [21]", "result": "Toxic"}, {"measurement": "residual activity", "setting": "[12]", "result": 94.8, "unit": "%"}]}]}
